Measured values: paper PMC10731658 (Chemical Research in Toxicology, 2023)

How the values were obtained:
HepG2 cells [1] = experiment: Intracellular nonprotein disulfides (NP-SS-NP) by HPLC-UV; format: cell-based, human; conditions: IC50 concentration
Description: (§1) The culture medium was removed from a 25 cm^2 culture flask on the day of the experiment, and cells were washed twice with 3 mL of phosphate-buffered saline (PBS; GE Healthcare Life Sciences, South Logan, UT). Subsequently, 3 mL of a plain DMEM medium (negative control) and a DMEM medium containing TBHP (positive control) or individual oximes were added to each flask, and cells were incubated for 1, 4, and 24 h. The concentration of individual oxime and TBHP in the DMEM medium corresponded to the IC50 value. After incubation, the experimental medium was removed, and cells were washed with 3 mL of PBS and harvested by scraping. The resulting suspension was centrifuged at 220g and 21 °C for 5 min (Universal 320R centrifuge, Hettich, Tuttlingen, Germany). The supernatant was removed and dried cell pellets were stored at −80 °C. Each experiment was carried out in three independent replicates.
(§2) The cell pellets were thawed at room temperature, resuspended in 500 μL of ultrapure water (Millipore Purification System, Merck, Millipore, Darmstadt, Germany), and sonicated for 2 min (2 s cycle, amplitude 20%) in a Q500 homogenizer (QSONICA Sonicators, Newton). Then, the homogenate was divided into three parts: 250 μL for the determination of malondialdehyde (MDA), 100 μL for each determination of nonprotein thiols (NP-SH) and disulfides (NP-SS-NP), and 10 μL for the Bradford protein assay.
(§3) The HepG2 cell homogenate obtained, as described in Section 2.6, was processed for the determination of intracellular NP-SH and NP-SS-NP, according to Muckova et al.[11] The samples were analyzed using the HPLC system described above equipped with an SPD 20-AV Prominence UV/vis detector. The analysis was carried out on a Phenomenex LUNA C18 column (150 mm × 3 mm, 3 μm, 100 Å) protected with a Security Cartridge (4 mm × 2 mm, Phenomenex, Torrance) at 30 °C and a constant flow rate of 0.330 mL/using the mobile phase consisting of 0.9% aqueous FA (A) and ACN (B) under gradient conditions: 0–1 min 12% B, 1.1–2 min 12–55% B, 2–7 min 55% B, 7.1 min 55% B, and 7.1–10 min 12% B. The detector was set at 326 nm and the sample injection volume was 20 μL.

rat plasma = conditions: in vivo; cited from earlier work
HepG2 cells [2] = experiment: Intracellular RONS detection with DCFH-DA fluorescent probe; format: cell-based, human; conditions: IC50 concentration
Description: Two different fluorescent dyes, i.e., 2,7-dichlorodihydrofluorescein diacetate (DCFH-DA, Cayman Chemicals Company, Ann Arbor, MI) and dihydroethidium (DHE, Sigma-Aldrich, St. Louis, MO) were utilized for the determination of intracellular levels of RONS after 1, 4, and 24 h of incubation with tested oxime reactivators or TBHP (positive control). Cells incubated with oxime-free DMEM represented untreated control. After the incubation, the experimental medium was removed and replaced with a solution of DCFH-DA or DHE at concentrations of 20 and 5 μmol/L, respectively. The cells were subsequently incubated at 37 °C in a CO2 incubator for 45 min. Afterward, the fluorescence intensity of each well was measured using a Spark multimode microplate reader at an excitation wavelength of 485 nm for DCFH-DA or 528 nm for the DHE probe and an emission wavelength of 535 or 590 nm, respectively. Each experiment was carried out in triplicate and repeated three independent times.
The toxicological indices IC50 were calculated from control-subtracted triplicates using nonlinear regression (four parameters) using GraphPad Prism 9 software version 9.3.0 (GraphPad Software Inc., San Diego, CA). One-way analysis of variance (ANOVA) followed by Dunnetʼs multiple comparison test was used for RONS, MDA, NP-SH, and NP-SS-NP statistical analysis by GraphPad Prism 9 software, version 9.3.0. Data are expressed as means ± standard deviation (SD) of three independent measurements (n = 3). Significant differences between oxime-treated and untreated control groups (p ≤ 0.05) were marked by an asterisk (*).

HepG2 cells [3] = experiment: Intracellular nonprotein thiols (NP-SH) by HPLC-UV; format: cell-based, human; conditions: 24 h, IC50 concentration
Description: as §1, §2, §3

Row | SMILES | increase in NP-SS-NP levels vs untreated control (HepG2 cells [1]; 1 h) [%] | increase in NP-SS-NP levels vs untreated control (HepG2 cells [1]; 4 h) [%] | increase in NP-SS-NP levels vs untreated control (HepG2 cells [1]; 24 h) [%] | signs of oxidative stress (TBARS, superoxide dismutase activity) (rat plasma) | increase of RONS (DCFH-DA probe) vs negative control (HepG2 cells [2]; 1 h incubation) [%] | increase of RONS (DCFH-DA probe) vs negative control (HepG2 cells [2]; 4 h incubation) [%] | increase of RONS (DCFH-DA probe) vs negative control (HepG2 cells [2]; 24 h incubation) [%] | decrease in NP-SH levels vs untreated control (HepG2 cells [3]) [%]
1 | NC(=O)c1cc[n+](CCCC[n+]2ccc(C=NO)cc2)cc1.[Br-].[Br-] [K048, 4-carbamoyl-1-(4-(4-((hydroxyimino)methyl)pyridin-1-ium-1-yl)butyl)pyridin-1-ium dibromide] | 34.8 | 54.8 | 61.5 | no signs of oxidative stress | 146 | 193 | 115 | 11.4
2 | O/N=C/c1cc[n+](CCCC[n+]2ccc(/C=N/O)cc2)cc1 [K074, 1,1′-(butane-1,4-diyl)bis(4((hydroxyimino)methyl)pyridine-1-ium) dibromide] | 42.8 | 52.4 | 72.3 |  | 171 | 244 | 117 | 11.6
